pKi: −log10 of the molar value. Structures can show the parent of a compound that is named as a salt. Where two headings read alike, the source gives them in different places.

As a reminder, the pKi is −log10 of the Ki, conventionally taken in molar units. A higher pKi goes with a small Ki. One may read the Ki as the dissociation constant of the complex between target and ligand, obtained from inhibition or displacement.

The target of assay [1] is T1, α-1A adrenoreceptor (rat submaxillary gland) (Rattus norvegicus, UniProt P43140).
T1 construct: Rat submaxillary glands were used for α-1A adrenoreceptors; from tissue; host or cells: rat submaxillary gland membranes
T1 sequence (P43140 1-466): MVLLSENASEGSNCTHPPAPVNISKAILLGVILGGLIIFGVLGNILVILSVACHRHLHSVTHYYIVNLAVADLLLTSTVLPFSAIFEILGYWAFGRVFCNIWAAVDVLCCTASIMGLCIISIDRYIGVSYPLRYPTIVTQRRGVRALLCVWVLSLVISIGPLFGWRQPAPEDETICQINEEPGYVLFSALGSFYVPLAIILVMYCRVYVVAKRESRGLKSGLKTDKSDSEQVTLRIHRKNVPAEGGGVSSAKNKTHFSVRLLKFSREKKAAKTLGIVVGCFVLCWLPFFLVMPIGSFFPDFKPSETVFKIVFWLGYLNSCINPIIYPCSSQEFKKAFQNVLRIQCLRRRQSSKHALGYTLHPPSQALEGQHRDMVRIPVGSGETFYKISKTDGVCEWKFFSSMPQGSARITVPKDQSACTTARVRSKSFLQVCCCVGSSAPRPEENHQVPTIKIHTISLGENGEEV
The assay is described as follows: In vitro [3H]-prazosin radioligand binding, pharmacologically defined α-1A adrenoreceptor (rat submaxillary gland). Conditions: for Ki: rat submaxillary gland, [3H]prazosin 0.2 nM, read-out: Radioligand Binding (Ki; nM) 1A (Rat). How it is done:
Additionally, binding affinity against the pharmacologically defined α-1A adrenoreceptor (rat submaxillary gland) was measured.
(§1) On the fifth day of culture, growth medium was removed from cells grown in roller bottles, and the cells were washed twice with PBS (Sigma, 120 mM NaCl, 2.7 mM KCl, 10 mM Na2 HPO4 --NaH2 PO4, pH=7.4). Cells were detached from the roller bottles by incubating for 15 minutes at 37° C. in a Tris-EDTA solution (10 mM Tris, 100 mM NaCl, 1 mM EDTA, pH=7.4). The cell suspension from each roller bottle was decanted into tared centrifuge tubes and kept on ice. An aliquot of each cell suspension was generally taken for cell counting. Cells were centrifuged at 3000×G for 5 min at 2°-4° C., washed with PBS and recentrifuged. The supernatant was decanted and the pellet weighed to determine the wet weight of cells. Cells were washed a final time in 40 vol 5 mM Tris-HCl, 5 mM EDTA, pH=7.7, and centrifuged at 40,000×G for 10 minutes. Cells were homogenized in 10 mL of 50 mM Tris-HCl, 5 mM EDTA (pH=7.4) and diluted to 40 mL/tube. Homogenates were centrifuged at 40,000×G for 10 minutes. The supernatant was decanted and the pellets rehomogenized in 50 mM Tris-HCl (pH=7.4) and centrifuged as before. The supernatant was decanted and the homogenate resuspended in 6.25 volumes (per gram wet weight) of 50 mM Tris-HCl and aliquots of the pooled homogenates frozen in liquid N2 and stored at -70° C. until the time of assay. Rat submaxillary glands were used for α-1A adrenoreceptors and were prepared essentially as described (Michel, A. D., Loury, D. N. and Whiting, R. L., Brit. J. Pharmacol. 98: 83-889 (1989)).
(§2) Receptor binding assays for α-1 adrenoreceptors were performed essentially as described by Greengrass and Bremner (Eur. J. Pharmacol. 55: 323-326 (1979)). […] Radioactivity was determined by standard liquid scintillation techniques. Data were analyzed as previously described (Hancock, A. A., Kyncl, J. J., Martin, Y. C. and DeBernardis, J. F., J Receptor Res. 8: 23-46 (1988)).

Assay [2] concerns the target T2, α-1a adrenoreceptor (bovine) (Bos taurus, UniProt P18130).
T2 construct: expressed in transfected cells; cDNA from TULCO; membranes
T2 sequence (P18130 1-466): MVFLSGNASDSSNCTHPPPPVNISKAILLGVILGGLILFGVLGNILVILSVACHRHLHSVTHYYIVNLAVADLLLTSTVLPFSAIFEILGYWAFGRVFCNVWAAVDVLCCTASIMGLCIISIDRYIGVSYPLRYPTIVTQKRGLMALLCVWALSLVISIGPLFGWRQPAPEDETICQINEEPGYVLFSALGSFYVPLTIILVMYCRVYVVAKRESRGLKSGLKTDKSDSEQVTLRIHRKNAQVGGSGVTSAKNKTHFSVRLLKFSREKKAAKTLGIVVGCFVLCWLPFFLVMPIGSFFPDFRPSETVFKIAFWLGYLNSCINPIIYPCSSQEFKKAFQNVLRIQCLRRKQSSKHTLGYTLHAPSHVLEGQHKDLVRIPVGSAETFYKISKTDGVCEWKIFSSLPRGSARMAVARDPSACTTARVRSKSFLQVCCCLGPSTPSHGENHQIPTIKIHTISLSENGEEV
The assay is described as follows: In vitro [3H]-prazosin radioligand binding, cloned α-1a adrenoreceptor expressed in LTK cells. The conditions noted are these: for Ki: cloned bovine α-1a in LTK cells, [3H]prazosin 0.2 nM, read-out: Radioligand Binding (Ki; nM) 1a (Bovine).
From the text: (§3) The cDNA clones encoding the α-1 adrenoreceptors (α-1a, α-1b, and α-1d) were obtained from TULCO (Triangle Universities Licensing Consortium, Research Triangle Park, N.C.) and inserted into the eukaryotic expression vector SnaB30. In this vector, expression of the adrenoreceptor gene is under the transcriptional control of an SV40 early promoter. Positive drug selection is provided by a neomycin-resistance gene. Mouse fibroblast cells (LTK) were transfected with the α1 expression plasmids and grown in Dulbecco's modified Eagle's medium (DMEM) containing 10% fetal calf serum and […]. Stable G418-resistant parental lines were generated, with successful expression of adrenoreceptor protein monitored using radioligand binding techniques. Stable single cell clones derived from the parental lines were screened in adrenoreceptor binding assays to identify clones having high adrenoreceptor density. Roller bottle cultures of the cloned lines were used to provide cell membranes for subsequent adrenoreceptor binding characterization studies. A cell line containing the SnaB30 vector expressing the human erythropoietin gene served as a negative control.
(§4) For adrenoreceptor binding assays, large scale membrane preparations were utilized in which 6 million cells were seeded into small (450 cm^2) Corning tissue culture roller bottles. 200 mL of DMEM containing 10% fetal calf serum and 300 μM G418 were added to each roller bottle. A 95% air/5% CO2 gas mixture (sterile) was injected into each roller bottle prior to sealing. The bottles were then incubated at 37° C. on a roller rack for 5 days. Cells were re-fed with fresh medium after 3 days in culture.
as §1, §2

Assay [3] has as its target T3, α-1b adrenoreceptor (hamster) (Mesocricetus auratus, UniProt P18841).
T3 construct: expressed in transfected cells; cDNA from TULCO; membranes
T3 sequence (P18841 1-515): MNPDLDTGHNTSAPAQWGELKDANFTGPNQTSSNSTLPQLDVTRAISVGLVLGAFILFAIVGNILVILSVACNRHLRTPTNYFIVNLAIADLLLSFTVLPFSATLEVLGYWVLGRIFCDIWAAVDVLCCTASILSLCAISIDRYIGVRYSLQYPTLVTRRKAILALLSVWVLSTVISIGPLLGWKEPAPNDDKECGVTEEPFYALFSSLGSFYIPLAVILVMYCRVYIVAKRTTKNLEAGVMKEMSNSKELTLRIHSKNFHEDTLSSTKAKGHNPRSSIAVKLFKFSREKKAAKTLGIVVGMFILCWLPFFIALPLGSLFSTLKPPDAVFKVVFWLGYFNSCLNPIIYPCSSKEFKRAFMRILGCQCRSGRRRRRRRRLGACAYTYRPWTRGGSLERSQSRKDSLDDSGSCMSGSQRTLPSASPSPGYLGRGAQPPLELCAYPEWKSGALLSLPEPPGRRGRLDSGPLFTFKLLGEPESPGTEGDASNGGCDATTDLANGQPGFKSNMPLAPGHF
The assay is described as follows: In vitro [3H]-prazosin radioligand binding, cloned α-1b adrenoreceptor expressed in LTK cells. The conditions noted are these: for Ki: cloned hamster α-1b in LTK cells, [3H]prazosin 0.2 nM, read-out: Radioligand Binding (Ki; nM) 1b (Hamster).
From the text: as §3, §4, §1, §2

Consider `COc1cccc2c1[C@@H]1CCN(CCCCn3c(=O)[nH]c4c(sc5ccccc54)c3=O)C[C@H]1CO2` (relative stereo) [Example 87, 3-[4-((±)-trans-10-Methoxy-1,3,4,4a,5,10b-hexahydro-2H-[1]-benzopyrano[3,4-c]pyrido-3-yl)butyl]-[1]-benzthieno[3,2-d]pyrimidine-2,4(1H,3H)-dione hydrochloride], for which the pKi in assay [1] was 9.43; in assay [2] it was 9.64; in assay [3] it was 8.54.

On to `COc1cccc2c1[C@@H]1CCN(CCCCn3c(=O)[nH]c4c(sc5cccnc54)c3=O)C[C@H]1CO2` (relative stereo) [Example 88, 3-[4-((±)-trans-10-Methoxy-1,3,4,4a,5,10b-hexahydro-2H-[1]-benzopyrano[3,4-c]pyrido-3-yl)butyl]-pyrido[2',3':4,5]thieno[3,2-d]pyrimidine-2,4(1H,3H)-dione hydrochloride], for which the pKi is 9.73 in assay [1], 9.96 in assay [2] and 9.10 in assay [3].

`COc1cc2[nH]c(=O)n(CCN3CC[C@H]4c5c(OC)cccc5OC[C@@H]4C3)c(=O)c2cc1OC` (relative stereo) [Example 91, 3-[2-((±)-trans-10-Methoxy-1,3,4,4a,5,10b-hexahydro-2H-[1]-benzopyrano[3,4-c]pyrido-3-yl)ethyl]-6,7-dimethoxy-quinazoline-2,4(1H,3H)-dione hydrochloride]: the Ki in assay [1] is 0.102 nM; in assay [2] it was 0.066 nM; in assay [3], 1.46 nM.

On to `COc1ccc2c(n1)sc1c(=O)n(CCCCN3C[C@@H]4COc5cccc(OC)c5[C@@H]4C3)c(=O)[nH]c12` [Example 33, hydrochloride], for which the Ki turned out to be 0.811 nM in assay [1], 0.082 nM in assay [2] and 10.5 nM in assay [3].

These data come from patent US5891882A, “Benzopyranopyrrole and benzopyranopyridine α-1 adenergic compounds” (priority 1997, dated 1999).
